Laboratory results reported in US5294603A, “Pharmaceutical compositions containing didemnins” (The Board of Trustees of The University of Illinois, priority 1992, dated 1994).
≈ marks a conversion by molar mass, not a printed value. Read-outs that look alike come from different tables or passages of the source. Numbered stars: 1 amine (or outer) side, 2 acyl side, 3 side chain; on linkers, the order of the positions; unused ones are H or OH. Bridge positions count the residues as written; N and C are the ends. Square brackets hold non-standard residues; d marks the D form. Peptide text beside a SMILES is read from it. * marks the point of attachment. X1 = CC[C@H](C)[C@@H](N[*:1])[C@@H](O)CC(=O)O[C@H](C(=O)[C@H](C)C(=O)[*:2])C(C)C; X9 = CCC(C)C(N[*:1])C(O)CC(=O)OC(C(=O)C(C)C(=O)[*:2])C(C)C; NMeY = CN[CH](Cc1ccc(O)cc1)C(=O)O; NMeCha = CN[C@@H](CC1CCCCC1)C(=O)O; Stearoyl = CCCCCCCCCCCCCCCCCC(=O)*; X8 = CC(C(=O)*)N1C(=O)c2ccccc2C1=O; dNMeL = CN[C@H](CC(C)C)C(=O)O; pGlu = O=C1CC[C@@H](C(=O)O)N1; Lauroyl = CCCCCCCCCCCC(=O)*; NMeL = CN[CH](CC(C)C)C(=O)O; X5 = O=C(Cc1ccccc1)C(=O)*; Octanoyl = CCCCCCCC(=O)*; Pyruvoyl = CC(=O)C(=O)*; Hexanoyl = CCCCCC(=O)*; Pentanoyl = CCCCC(=O)*; Lac = C[C@H](O)C(=O)O; Sar = CNCC(=O)O

Assays:
[1] = system: L1210 murine leukemia cells; settings: Table 9
Visna virus (VIV) = assay type: cell-based; parameters: key to % Protection / VIV Protection: I, indeterminate
L1210 [2] = settings: for cytotoxicity (result in words): Table 1 footnote and text
L1210 [3] = test: L1210 cytotoxicity, inhibition at fixed doses (Table 10); assay type: cell-based, murine
[4] = system: Nb2 cells, rat T-cell node lymphoma; test: Competitive binding with [3H]didemnin B to Nb2 cells; settings: 3 h at 37° C.
Procedure: The immunosuppressive assay was performed by measuring competitive binding of tested compounds with [^3 H]didemnin B to Nb2 cells, rat T-cell node lymphoma. See, Russell, D. H., et al., J. Immunology, 1987, 138, 276-284.
^a Competing didemnins incubated with approximately 25 ng of [^3

[5] = dose 25 ng/mL, tested 4/18/1991
[6] = dose 250 ng/mL, tested 4/18/1991
[7] = dose 25 ng/mL, tested 4/22/1990
[8] = dose 250 ng/mL, tested 4/22/1990

CC[C@H](C)[C@H]1NC(=O)[C@@H](NC(=O)[C@@H](CC(C)C)N(C)C(=O)[C@@H]2CCCN2C(=O)[C@H](C)OC(=O)[C@H](CCC(N)=O)NC(=O)[C@@H]2CCC(=O)N2)[C@@H](C)OC(=O)[C@H](Cc2ccc(OC)cc2)N(C)C(=O)[C@@H]2CCCN2C(=O)[C@H](CC(C)C)NC(=O)[C@@H](C)C(=O)[C@H](C(C)C)OC(=O)C[C@@H]1O [Didemnin M (12), Didemnin M] ([pGlu]Q[Lac]P[dNMeL]T[X1]LP[NMeY](Me); ester 6-C)
Cytotoxicity L1210 IC50 [1]: 0.4 ng/mL
VIV Protection (Visna virus (VIV)): -73

CCCCCC(=O)N(C)[C@H](CC(C)C)C(=O)N[C@@H]1C(=O)N[C@H]([C@@H](C)CC)[C@@H](O)CC(=O)O[C@@H](C(C)C)C(=O)[C@H](C)C(=O)N[C@@H](CC(C)C)C(=O)N2CCC[C@H]2C(=O)N(C)[C@@H](Cc2ccc(OC)cc2)C(=O)O[C@@H]1C [N^a -Hexanoyl-, N-hexanoyl didemnin A] (Hexanoyl-[dNMeL]T[X1]LP[NMeY](Me); ester 2-C)
cytotoxicity (result in words) (L1210 [2]): retained the cytotoxicity of didemnin B
Cytotoxicity percent L1210 inhibition (L1210 [2]; dose 5 ng/mL): 73%
Cytotoxicity percent L1210 inhibition (L1210 [2]; dose 12.5 ng/mL): 89%
Cytotoxicity percent L1210 inhibition (L1210 [2]; dose 25 ng/mL): 92%

CCCCCCCC(=O)N(C)[C@H](CC(C)C)C(=O)N[C@@H]1C(=O)N[C@H]([C@@H](C)CC)[C@@H](O)CC(=O)O[C@@H](C(C)C)C(=O)[C@H](C)C(=O)N[C@@H](CC(C)C)C(=O)N2CCC[C@H]2C(=O)N(C)[C@@H](Cc2ccc(OC)cc2)C(=O)O[C@@H]1C [N^a -Octanoyl-, N-octanoyl didemnin A] (Octanoyl-[dNMeL]T[X1]LP[NMeY](Me); ester 2-C)
cytotoxicity (result in words) (L1210 [2]): retained the cytotoxicity of didemnin B
Cytotoxicity percent L1210 inhibition (L1210 [2]; dose 5 ng/mL): 89%
Cytotoxicity percent L1210 inhibition (L1210 [2]; dose 12.5 ng/mL): 93%
Cytotoxicity percent L1210 inhibition (L1210 [2]; dose 25 ng/mL): 94%

CCCCC(=O)N(C)[C@H](CC(C)C)C(=O)N[C@@H]1C(=O)N[C@H]([C@@H](C)CC)[C@@H](O)CC(=O)O[C@@H](C(C)C)C(=O)[C@H](C)C(=O)N[C@@H](CC(C)C)C(=O)N2CCC[C@H]2C(=O)N(C)[C@@H](Cc2ccc(OC)cc2)C(=O)O[C@@H]1C [N^a -Pentanoyl-, N-pentanoyl didemnin A] (Pentanoyl-[dNMeL]T[X1]LP[NMeY](Me); ester 2-C)
cytotoxicity (result in words) (L1210 [2]): retained the cytotoxicity of didemnin B
Cytotoxicity percent L1210 inhibition (L1210 [2]; dose 5 ng/mL): 56%
Cytotoxicity percent L1210 inhibition (L1210 [2]; dose 12.5 ng/mL): 81%
Cytotoxicity percent L1210 inhibition (L1210 [2]; dose 25 ng/mL): 91%

CC[C@H](C)[C@H]1NC(=O)[C@@H](NC(=O)[C@@H](CC(C)C)N(C)C(=O)[C@@H]2CCCN2C(=O)C(=O)Cc2ccccc2)[C@@H](C)OC(=O)[C@H](Cc2ccc(OC)cc2)N(C)C(=O)[C@@H]2CCCN2C(=O)[C@H](CC(C)C)NC(=O)[C@@H](C)C(=O)[C@H](C(C)C)OC(=O)C[C@@H]1O [Phepyruv-Pro-DA, PhePyruv-Pro Didemnin A] (X5-P[dNMeL]T[X1]LP[NMeY](Me); ester 3-C)
IC50 (L1210 cells): 3.5 ng/mL (≈ 2.95 nM)
cytotoxicity compared with DDB (L1210 cells): only partially active
% Protection (Visna virus (VIV)): I

CCC(C)C1NC(=O)C(NC(=O)C(CC(C)C)N(C)C(=O)C2CCCN2C(=O)C(C)N2C(=O)c3ccccc3C2=O)C(C)OC(=O)C(Cc2ccc(OC)cc2)N(C)C(=O)C2CCCN2C(=O)C(CC(C)C)NC(=O)C(C)C(=O)C(C(C)C)OC(=O)CC1O (centres unmarked) [Phthalimidedidemnin B (82), Phthalimide didemnin B] (X8-P[NMeL]T[X9]LP[NMeY](Me); ester 3-C; configuration not given here)
Inhibition (%) (L1210 [3]; [5]): 98%
Inhibition (%) (L1210 [3]; [6]): 99%

CC[C@H](C)[C@H]1NC(=O)[C@@H](NC(=O)[C@@H](CC(C)C)N(C)C(=O)CN(C)C(=O)C(C)=O)[C@@H](C)OC(=O)[C@H](Cc2ccc(OC)cc2)N(C)C(=O)[C@@H]2CCCN2C(=O)[C@H](CC(C)C)NC(=O)[C@@H](C)C(=O)[C@H](C(C)C)OC(=O)C[C@@H]1O [Pyruv-Sar-DA, Pyruv-Sar Didemnin A] (Pyruvoyl-[Sar][dNMeL]T[X1]LP[NMeY](Me); ester 3-C)
IC50 (L1210 cells): 1 ng/mL (≈ 0.922 nM)
cytotoxicity (L1210 cells): completely inactive
% Protection (Visna virus (VIV)): I

CC[C@H](C)[C@H]1NC(=O)[C@@H](NC(=O)[C@@H](CC(C)C)N(C)C(=O)[C@@H]2CCCN2C(C)=O)[C@@H](C)OC(=O)[C@H](Cc2ccc(OC)cc2)N(C)C(=O)[C@@H]2CCCN2C(=O)[C@H](CC(C)C)NC(=O)[C@@H](C)C(=O)[C@H](C(C)C)OC(=O)C[C@@H]1O [[Acetyl^9]Didemnin B (103), [Acetyl^9]didemnin B] (Ac-P[dNMeL]T[X1]LP[NMeY](Me); ester 3-C)
Inhibition of [3H]didemnin B binding (%) ([4]; 0.001 μg/mL): 3%
Inhibition of [3H]didemnin B binding (%) ([4]; 0.01 μg/mL): 2%
Inhibition of [3H]didemnin B binding (%) ([4]; 0.1 μg/mL): 67%
Inhibition of [3H]didemnin B binding (%) ([4]; 1 μg/mL): 85%
Cytotoxicity L1210 IC50 [1]: 0.2 ng/mL
VIV Protection (Visna virus (VIV)): -123

CC[C@H](C)[C@H]1NC(=O)[C@@H](NC(=O)[C@@H](CC(C)C)NC)[C@@H](C)OC(=O)[C@H](CC2CCCCC2)N(C)C(=O)[C@@H]2CCCN2C(=O)[C@H](CC(C)C)NC(=O)[C@@H](C)C(=O)[C@H](C(C)C)OC(=O)C[C@@H]1O [[H6 -N-MePhe^5] didemnin A (117), [Hexahydro-N-MePhe^5]didemnin A] (H-[dNMeL]T[X1]LP[NMeCha]; ester 2-C)
Inhibition (%) (L1210 [3]; [5]): 25%
Inhibition (%) (L1210 [3]; [7]): 75%
Inhibition (%) (L1210 [3]; [6]): 94%
Inhibition (%) (L1210 [3]; [8]): 98%

CC[C@H](C)[C@H]1NC(=O)[C@@H](NC(=O)[C@@H](CC(C)C)N(C)C(=O)[C@@H]2CCCN2C(=O)[C@H](C)O)[C@@H](C)OC(=O)[C@H](CC2CCCCC2)N(C)C(=O)[C@@H]2CCCN2C(=O)[C@H](CC(C)C)NC(=O)[C@@H](C)C(=O)[C@H](C(C)C)OC(=O)C[C@@H]1O [[H6 -N-MePhe^5] didemnin B (118), [Hexahydro-N-MePhe^5]didemnin B]
Inhibition (%) (L1210 [3]; [5]): 99%
Inhibition (%) (L1210 [3]; [7]): 99%
Inhibition (%) (L1210 [3]; [6]): 99%
Inhibition (%) (L1210 [3]; [8]): 99%

CC[C@H](C)[C@H]1NC(=O)[C@@H](NC(=O)[C@@H](CC(C)C)NC)[C@@H](C)OC(=O)[C@H](CC2CCC(OC)CC2)N(C)C(=O)[C@@H]2CCCN2C(=O)[C@H](CC(C)C)NC(=O)[C@@H](C)C(=O)[C@H](C(C)C)OC(=O)C[C@@H]1O (some centres unmarked) [[H6 Me2 Tyr^5]didemnin A (115), [HexahydroMe2 Tyr^5]didemnin A]
Inhibition (%) (L1210 [3]; [7]): 17%
Inhibition (%) (L1210 [3]; [8]): 94%

CC[C@H](C)[C@H]1NC(=O)[C@@H](NC(=O)[C@@H](CC(C)C)N(C)C(=O)[C@@H]2CCCN2C(=O)[C@H](C)O)[C@@H](C)OC(=O)[C@H](CC2CCC(OC)CC2)N(C)C(=O)[C@@H]2CCCN2C(=O)[C@H](CC(C)C)NC(=O)[C@@H](C)C(=O)[C@H](C(C)C)OC(=O)C[C@@H]1O (some centres unmarked) [[H6 Me2 Tyr^5]didemnin B (116), [HexahydroMe2 Tyr^5]didemnin B]
Inhibition (%) (L1210 [3]; [5]): 99%
Inhibition (%) (L1210 [3]; [7]): 98%
Inhibition (%) (L1210 [3]; [6]): 99%
Inhibition (%) (L1210 [3]; [8]): 99%

CCCCCCCCCCCC(=O)N(C)[C@H](CC(C)C)C(=O)N[C@@H]1C(=O)N[C@H]([C@@H](C)CC)[C@@H](O)CC(=O)O[C@@H](C(C)C)C(=O)[C@H](C)C(=O)N[C@@H](CC(C)C)C(=O)N2CCC[C@H]2C(=O)N(C)[C@@H](Cc2ccc(OC)cc2)C(=O)O[C@@H]1C [lauroyl, N-lauroyl didemnin A] (Lauroyl-[dNMeL]T[X1]LP[NMeY](Me); ester 2-C)
cytotoxicity (result in words) (L1210 [2]): inactive

CC[C@H](C)[C@H]1NC(=O)[C@@H](NC(=O)[C@@H](CC(C)C)N(C)C(=O)[C@@H]2CCCN2C(=O)[C@H](C)OC(=O)[C@@H]2CCC(=O)N2)[C@@H](C)OC(=O)[C@H](Cc2ccc(OC)cc2)N(C)C(=O)[C@@H]2CCCN2C(=O)[C@H](CC(C)C)NC(=O)[C@@H](C)C(=O)[C@H](C(C)C)OC(=O)C[C@@H]1O [pGlu-didemnin B (113), O-Pyroglutamyldidemnin B] ([pGlu][Lac]P[dNMeL]T[X1]LP[NMeY](Me); ester 5-C)
Cytotoxicity L1210 IC50 [1]: 0.4 ng/mL
VIV Protection (Visna virus (VIV)): -65

CCCCCCCCCCCCCCCCCC(=O)N(C)[C@H](CC(C)C)C(=O)N[C@@H]1C(=O)N[C@H]([C@@H](C)CC)[C@@H](O)CC(=O)O[C@@H](C(C)C)C(=O)[C@H](C)C(=O)N[C@@H](CC(C)C)C(=O)N2CCC[C@H]2C(=O)N(C)[C@@H](Cc2ccc(OC)cc2)C(=O)O[C@@H]1C [stearoyl, N-stearoyl didemnin A] (Stearoyl-[dNMeL]T[X1]LP[NMeY](Me); ester 2-C)
cytotoxicity (result in words) (L1210 [2]): inactive

Didemnin D [Didemnin D (19)]
Cytotoxicity L1210 IC50 [1]: 0.5 ng/mL
VIV Protection (Visna virus (VIV)): -53

Didemnin E [Didemnin E (20)]
Cytotoxicity L1210 IC50 [1]: 0.5 ng/mL
VIV Protection (Visna virus (VIV)): -73

Didemnin X [Didemnin X (10)]
Cytotoxicity L1210 IC50 [1]: 2 ng/mL
VIV Protection (Visna virus (VIV)): -25

Didemnin Y [Didemnin Y (11)]
Cytotoxicity L1210 IC50 [1]: 2 ng/mL
VIV Protection (Visna virus (VIV)): -33

Isodidemnin A1 [Isodidemnin A1 (1a)]
Cytotoxicity L1210 IC50 [1]: 10 ng/mL
VIV Protection (Visna virus (VIV)): < 0

N-(CH3 ONsu)didemnin A [N-(CH3 ONsu)-didemnin A (111)]
VIV Protection (Visna virus (VIV)): -43

N-palmitoyl didemnin A
cytotoxicity (result in words) (L1210 [2]): inactive

Nordidemnin A [Nordidemnin A (21)]
Cytotoxicity L1210 IC50 [1]: 30 ng/mL
VIV Protection (Visna virus (VIV); Table 9, 0.1 μg/mL): < 0%

[AnhydroIst^1 ]Phthalimide didemnin B
Inhibition (%) (L1210 [3]; [5]): 81%
Inhibition (%) (L1210 [3]; [6]): 99%
